Data on 18 compounds can be found in ChEMBL document CHEMBL1121668, “(Phenylthio)phenylamine derivatives as potential antiinflammatory compounds” (J Med Chem, 1981).

SMILES strings stand for the structures.

Data set [1] is described as follows: Lethal dose is determined in mice (iv). It counts as toxicity, organism-based. The conditions noted are these: mouse, in vivo.
In data set [2] the test system is Rattus norvegicus. The data set can be described thus: Compound is evaluated for antiinflammatory activity using carrageenan-induced paw edema method in rat at a dose 5 mg/kg ip after 3h. It counts as functional. The conditions noted are these: route intraperitoneal.
The test system of data set [3] is Rattus norvegicus. The data set can be described thus: Compound is evaluated for antiinflammatory activity using carrageenan-induced paw edema method in rat at a dose 5 mg/kg ip after 2 hr. It counts as functional. The conditions noted are these: route intraperitoneal.
The subject of data set [4] is Rattus norvegicus. The data set can be described thus: Compound is evaluated for antiinflammatory activity using carrageenan-induced paw edema method in rat at a dose 5 mg/kg ip after 1 hr. The following applies: route intraperitoneal. Type of data set: functional.
Data set [5] in a line: Lethal dose is determined in mice (po). It counts as toxicity, organism-based. The following applies: mouse, in vivo.
Data set [6] relates to Rattus norvegicus. The data set can be described thus: Compound is evaluated for antiinflammatory activity using carrageenan-induced paw edema method in rat at a dose 500 mg/kg ip after 2 hr. Type of data set: functional. The following applies: route intraperitoneal.
Data set [7] relates to Rattus norvegicus. The data set can be described thus: Compound is evaluated for antiinflammatory activity using carrageenan-induced paw edema method in rat at a dose 500 mg/kg ip after 1 hr. It counts as functional. The following applies: route intraperitoneal.
In data set [8] the test system is Rattus norvegicus. The data set can be described thus: Compound is evaluated for antiinflammatory activity using carrageenan-induced paw edema method in rat at a dose 500 mg/kg ip after 3h. The following applies: route intraperitoneal. It counts as functional.
Data set [9] concerns Rattus norvegicus. The data set can be described thus: Compound is evaluated for antiinflammatory activity using carrageenan-induced paw edema method in rat at a dose 200 mg/kg po after 2 hr. Type of data set: functional.
Data set [10] concerns Rattus norvegicus. The data set can be described thus: Compound is evaluated for antiinflammatory activity using carrageenan-induced paw edema method in rat at a dose 200 mg/kg po after 3h. It counts as functional.
For data set [11], the system named is Rattus norvegicus. The data set can be described thus: Compound is evaluated for antiinflammatory activity using carrageenan-induced paw edema method in rat at a dose 200 mg/kg po after 1 hr. It counts as functional.
Data set [12] relates to Rattus norvegicus. The data set can be described thus: Compound is evaluated for antiinflammatory activity using carrageenan-induced paw edema method in rat at a dose 25 mg/kg ip after 3h. It counts as functional. The following applies: route intraperitoneal.
Data set [13] deals with Rattus norvegicus. The data set can be described thus: Compound is evaluated for antiinflammatory activity using carrageenan-induced paw edema method in rat at a dose 25 mg/kg ip after 2 hr. Type of data set: functional. The conditions noted are these: route intraperitoneal.
In data set [14] the test system is Rattus norvegicus. The data set can be described thus: Compound is evaluated for antiinflammatory activity using carrageenan-induced paw edema method in rat at a dose 25 mg/kg ip after 1 hr. Type of data set: functional. The conditions noted are these: route intraperitoneal.
The subject of data set [15] is Rattus norvegicus. The data set can be described thus: Compound is evaluated for antiinflammatory activity using carrageenan-induced paw edema method in rat at a dose 30 mg/kg ip after 1 hr. Type of data set: functional. The following applies: route intraperitoneal.
In data set [16] the test system is Rattus norvegicus. The data set can be described thus: Compound is evaluated for antiinflammatory activity using carrageenan-induced paw edema method in rat at a dose 30 mg/kg ip after 3h. Type of data set: functional. The conditions noted are these: route intraperitoneal.
The test system of data set [17] is Rattus norvegicus. The data set can be described thus: Compound is evaluated for antiinflammatory activity using carrageenan-induced paw edema method in rat at a dose 30 mg/kg ip after 2 hr. It counts as functional. The conditions noted are these: route intraperitoneal.
In data set [18] the test system is Rattus norvegicus. The data set can be described thus: Compound is evaluated for antiinflammatory activity using carrageenan-induced paw edema method in rat at a dose 10 mg/kg ip after 1 hr. It counts as functional. The following applies: route intraperitoneal.
Data set [19] deals with Rattus norvegicus. The data set can be described thus: Compound is evaluated for antiinflammatory activity using carrageenan-induced paw edema method in rat at a dose 10 mg/kg ip after 2 hr. It counts as functional. The following applies: route intraperitoneal.
Data set [20] relates to Rattus norvegicus. The data set can be described thus: Compound is evaluated for antiinflammatory activity using carrageenan-induced paw edema method in rat at a dose 10 mg/kg ip after 3h. Type of data set: functional. The conditions noted are these: route intraperitoneal.

In the case of `CCN(CC)CC(=O)N(C)c1ccc(Sc2ccccc2)cc1`, the LD50 in data set [1] was found to be 30 mg/kg; in data set [5], 140 mg/kg. Besides, the Reduction was found to be 52% in data set [2], 50% in data set [3] and 53% in data set [4].

On to `CN(C(=O)C1CC1)c1ccc(Sc2ccccc2)cc1`, for which, in data set [1], the LD50 was above 1000 mg/kg. Moreover, the Reduction was 48% in data set [6], 57% in data set [7] and 37% in data set [8].

Compound `CN(C(=O)c1ccc(Cl)cc1)c1ccc(Sc2ccccc2)cc1` gave an LD50 in [1] above 1000 mg/kg. The Reduction in data set [6] was found to be 60%; in data set [7] it was 65%; in [8], 48%.

Turning to `CN(C(=O)C1CN(c2ccccc2)C(=O)C1=O)c1ccc(Sc2ccccc2)cc1` (stereo unspecified), the Reduction in [9] is recorded as 5%; in [10] it was 0%; in data set [11], 36%. Besides, the LD50 in data set [5] was above 1000 mg/kg.

Take `CC(C)N1CC(C(=O)N(C)c2ccc(Sc3ccccc3)cc2)C(=O)C1=O` (stereo unspecified): the Reduction in data set [9] is listed as 26%; in data set [10], 18%; in data set [11], 30%. The LD50 in [5] was above 1000 mg/kg.

In the case of `CCN(CC)CC(=O)Nc1ccc(Sc2ccccc2)cc1`, the LD50 in data set [1] was 45 mg/kg; in [5], 275 mg/kg. Besides, the Reduction in [12] is 22%; in data set [13], 47%; in data set [14], 30%.

In data set [1], `CN(C(=O)CN1CCCCC1)c1ccc(Sc2ccccc2)cc1` had an LD50 of 25 mg/kg. Also, the Reduction in data set [2] was found to be 34%; in [3] it was 29%; in [4], 40%.

In [1], `CC(=O)Oc1ccccc1C(=O)N(C)c1ccc(Sc2ccccc2)cc1` showed an LD50 of 1000 mg/kg. Further, the Reduction in data set [6] is listed as 55%; in [7], 59%; in data set [8], 32%.

As for `CN1CC(C(=O)N(C)c2ccc(Sc3ccccc3)cc2)C(=O)C1=O` (stereo unspecified), in data set [1], the LD50 is above 1000 mg/kg. Further, the Reduction in data set [9] is 0%; in [10], 0%; in [11], 36%.

Consider `CCN(CC)CC(=O)Nc1ccc(Sc2ccc(Cl)cc2)cc1`, for which the figures for the LD50 in data set [1] and in data set [5] were 45 mg/kg and 275 mg/kg, respectively. Besides, the values for the Reduction in data set [12], in data set [13] and in data set [14] were 72%, 74% and 56%, respectively.

As to `CCN(CC)CC(=O)Nc1ccccc1Sc1ccc(Cl)cc1`, the LD50 in [1] amounted to 55 mg/kg; in [5], 35 mg/kg. Besides, the Reduction in [15] was determined as 65%; in data set [16] it was 68%; in data set [17], 63%.

Turning to `CN(C)CC(=O)N(C)c1ccc(Sc2ccccc2)cc1`, the LD50 in data set [1] amounted to 50 mg/kg. Moreover, the Reduction came to 22% in [2], 14% in data set [3] and 18% in data set [4].

As to `CCN(CC)CC(=O)N(C)c1ccc(Sc2ccc(Cl)cc2)cc1`, the LD50 in data set [1] amounted to 45 mg/kg; in [5], 175 mg/kg. Besides, the Reduction was 13% in data set [18], 15% in data set [19] and 0% in data set [20].

`CN(C(=O)CN1CCOCC1)c1ccc(Sc2ccccc2)cc1` showed an LD50 in data set [1] of 75 mg/kg. Moreover, the Reduction in [18] is on record as 55%; in [19] it was 45%; in [20] it was 43%.

For the compound `CCOC(=O)C1=C(Nc2ccc(Sc3ccccc3)cc2)C(=O)N(C(C)C)C1`, the Reduction in [9] was 30%; in [10], 30%; in data set [11] it was 22%. The compound also had an LD50 in data set [5] above 1000 mg/kg.

With `CN(C(=O)CN1CCCC1)c1ccc(Sc2ccccc2)cc1`, in data set [1], the LD50 was 35 mg/kg. The Reduction in data set [2] was found to be 23%; in [3] it was 18%; in [4] it was 18%.

The compound `CN1CCN(CC(=O)N(C)c2ccc(Sc3ccccc3)cc2)CC1` had an LD50 in data set [1] of 75 mg/kg. For the same compound, the Reduction in data set [18] is 45%; in data set [19], 30%; in [20], 38%.

Turning to `COc1ccc2c(c1)c(CC(=O)O)c(C)n2C(=O)c1ccc(Cl)cc1` [INDOMETHACIN], the values for the Reduction in [18], in data set [19] and in data set [20] were 61%, 65% and 67%, respectively.
